Source: patent US20260373497A1, “MOLECULAR MACHINES STIMULATE INTERCELLULAR CALCIUM WAVES AND CAUSE MUSCLE CONTRACTION” (William Marsh Rice University, priority 2022, published 2026)
Values joined by “and” are separate entries in the source; they are usually repeats but may differ in a detail not shown here. Equal values may be shown once. “Also recorded” adds a separate entry of the source. Read-outs that look alike come from different tables or passages of the source.

Legend:
[1] = MM rotation rate (thermodynamics of the thermal helix inversion step); assay type: physicochemical; conditions: Table 1; from thermodynamics of thermal helix inversion
Experimental: (§1) Table 1. Properties of MM 1-4. Partition coefficients and total polar surface area were calculated using the molInspiration online calculator. milogP represents the logarithm of the partition coefficient between octanol and water, used to represent hydrophobicity (higher values are more hydrophobic). Rotation rates were provided using the thermodynamics of the thermal helix inversion step. MM structures provided for reference.
Effects of Rotation Speed and Directionality: The propensity for unidirectional MM to rotate and exert mechanical force on their environment depend principally on two factors: the rotation rate and the photoconversion efficiency. Both of these depend on MM structure. The rotation rate is determined by the half-life of the thermal helix inversion, which is driven by the steric interactions governing the passage of the rotor over the stator (Pollard et al., 2007). The photoconversion efficiency, also known as the quantum yield of photoisomerization, or ΦP, represents the proportion of photons absorbed by the molecule that drive molecular rotation (as opposed to fluorescence or non-radiative decay processes). ΦP is primarily influenced by the electronic structure. MM directionality can also be influenced by structure, as the driving force for unidirectional rotation depends upon the presence of a stereogenic center.

[2] = Extinction coefficient by UV-Vis; assay type: physicochemical; conditions: UV-Vis in spectral-grade water, 16 μM
Experimental: FIG. 13—Sample UV-Vis spectra of each MM taken at 16 μM in spectral-grade water.
as §1

[3] = test system: HEK293 cells; experiment: MM-induced intracellular calcium responses (Fluo-4) after 400 nm stimulation; assay type: cell-based
Experimental: To investigate cellular responses to the actuation of MM, live-cell calcium tracking were employed. HEK293 cells were treated with the fluorescent intracellular calcium indicator Fluo-4 and loaded with MM. The structures of the MM employed in this study are shown in FIG. 1B, and the calcium responses of cells treated with fast-rotating MM 1 are shown in FIG. 1C. […] In the presence of the vehicle only, no calcium responses were evoked by the same laser treatment (FIG. 2).
Cell Culture and Preparation of Cells for Microscopy: HEK293 cells were chosen as the principal model system due to their prevalence in electrophysiological interrogation. […] HEK293 cells, HeLa cells, and N2A cells were cultured in DMEM (10% FBS, 1% penicillin/streptomycin) and passaged at <90% confluence. To grow cardiomyocytes, a dissColved rat heart (TransnetYX©) was triturated, centrifuged, and resuspended in cardiomyocyte growth medium (TransnetYX© catalog #SKU-NBCG) and seeded at a concentration of 60,000 cells cm^−2. Growth substrates were pre-treated with 1% gelatin solution for 3 h, then washed with PBS. Cardiomyocytes were allowed to grow for 4 days, after which the growth medium was exchanged for cardiomyocyte maintenance medium (TransnetYX© catalog #SKU-NBCM). Experiments were conducted from day 4 to day 6.
Imaging was conducted in imaging extracellular buffer (iECB; 119 mM NaCl, 5 mM KCl, 10 mM HEPES, 2 mM CaCl2, 1 mM MgCl2 (pH 7.2); 320 mOsm). Imaging in calcium-free medium was conducted in phosphate-buffered saline. Cells were prepared for imaging by seeding a 35 mm Ibidi imaging dish with ~50,000 cells in 1 mL of DMEM, and grown at 37 °C, 5% CO2 for 2 days. Prior to imaging, cells were incubated with dyes and/or molecules resuspended in complete growth medium at the appropriate concentration (MM 1 (8 μM), MM 2 (8 μM), MM 3 (24 μM), MM 4 (8 μM), Fluo-4 (2 μM)). MM and Fluo-4 were loaded into cells for 45 min. Cells treated with thapsigargin were exposed for 30 min after MM and Fluo-4 loading. Cells treated with organelle-targeting dyes were exposed for 5 min after MM loading. Ruthenium red and Gd^3+ were included in the imaging medium during stimulation and were associated with cells for 10 min prior to imaging. At the end of incubation, this medium was replaced with the iECB. Unless otherwise specified, all experiments were replicated in triplicate.
In Vitro Imaging and Stimulation: Cells were loaded in a Nikon A1-Rsi confocal system mounted on a widefield Ti-E fluorescence microscope. Imaging was conducted using a 60× water immersion objective (NA of 1.27, 0.17 mm working distance). Green fluorophores (Fluo-4, MitoTracker Green) were excited using a 488 nm photodiode laser. Red fluorophores (ER-Tracker-Red, PI) were excited using a 561 nm photodiode laser. Deep red fluorophores (cellMask plasma membrane stain) were excited using a 630 nm photodiode laser. Laser stimulation for in vitro experiments was performed with a 400 nm photodiode laser (Coherent OBIS™ LX SF) operating in a fluorescence-recovery-after-photobleaching (FRAP) experiment mode, delivering up to 6.4×10^2 W cm^−2 at sample level. Unless otherwise specified, all experiments were conducted using a stimulus irradiance of 3.2×10^2 W cm^−2. Cardiomyocyte experiments were conducted using a stimulus irradiance of 5.1×10^2 W cm^−2. Power was calibrated using a Thor Labs S130C laser power meter. Stimulation was targeted to a circular area of diameter 5 μm in a 250 ms pulse, during which the laser rasters across the entire region of interest. […] Fluo-4 fluorescence was collected for 30 s before and 2 min after stimulation. Images were collected using a Galvano scanner operating at 0.94 fps. In selected experiments, images were also collected using a resonant scanner operating at 7.7 fps.
Data Analysis—In Vitro: Data were analyzed using custom-written Python scripts. Fluorescence traces of calcium indicator Fluo-4 from cells were imported and processed via the Pandas library. […]

[4] = cited from earlier work
[5] = test system: C2C12 myotubes; experiment: C2C12 myotube contraction (image subtraction); assay type: cell-based, mouse; conditions: 400-nm light 1.5 s, image subtraction
Experimental: FIG. 35—Flow chart for the image subtraction process. First, the background is subtracted from the traces to account for drift during the course of the experiment (top row). After this, the traces are zeroed at the point of stimulation, and the area is calculated from the point of stimulation until the end of the experiment to yield the contraction magnitude. (bottom row).
FIGS. 40A-40D—MMs induce contraction in C2C12 myotubes, a) Confocal microscopy images of Fluo-4 and b) image subtraction of brightfield images to highlight calcium release and contractile motion in three stimulated myotubes (indicated by the red arrows) immediately before stimulation (t=0) for 1.5 s with 400-nm light, as well as 10 s and 120 s after stimulation. Scale bar=30 μm. c) Magnitude of contraction of MM 1 compared to DMSO, MM 2, MM 3, and cells treated with 10 μM U-73122. d) Mechanism of skeletal muscle cell contraction.
This method yielded images where the pixel intensity corresponds to movement over the course of the experiment (FIG. 40C), allowing us to easily visualize and quantify contraction.

[6] = UV-Vis absorbance of motors in DMSO; assay type: physicochemical
From the text: The UV-Vis spectrum of each motor was also acquired in DMSO (FIG. 37D) to ensure that the difference in absorbance at 400 nm was not the cause of larger or smaller responses.

[7] = 8 μM MM, 400 nm, 3.2×10^2 W cm^−2, 250 ms

Rotation rate [1] | Extinction Coeff @ 400 nm [2] | Structure (SMILES) | Intracellular calcium response (Fluo-4) [3, 7] | Rotation rate [4] | Decay kinetics of calcium response ([3]; 8 μM, 400 nm light, 250 ms) | Time to peak of calcium transient after stimulation ([3]; 8 μM, 400 nm light, 250 ms) | Repeatability of calcium responses ([3]; 3.2×10^2 W cm^−2, 250 ms, multiple stimulations) | Light power dependence of calcium response ([3]; 250 ms pulse, 5 μm diameter) | Propagation of calcium response to adjacent cells ([3]; MM 1, 400 nm light) | Signal amplitude compared with other MM ([3]; MM 1 vs MM 2) | Myotube contraction [5] | Absorbance at 400 nm [6] | Intracellular calcium response (Fluo-4) ([3]; MM 3 at 24 μM, 6.4×10^2 W cm^−2)
3 × 10^6 Hz | ~13,000 L mol^−1cm^−1 | CN(C)CCNc1ccc2c(c1)Sc1ccccc1C2=C1CCc2ccc3ccccc3c21 [MM 4] | elicited only small changes in calcium concentration; also recorded: elicited inconsistent and weak responses | 3 MHz |  |  |  |  |  |  |  |  | 
0.1 Hz | ~7,500 L mol^−1cm^−1 | CC1Cc2cc(NCCN(C)C)c3ccccc3c2C1=C1c2ccccc2-c2ccccc21 (stereo not drawn) [MM 3] |  |  |  |  |  |  |  |  | Strong cellular contraction did not occur | much smaller absorbance | elicited no change in calcium activity upon irradiation; also recorded: did not elicit any noticeable responses in vitro

Structure (SMILES) | Rotation rate [1] | Extinction Coeff @ 400 nm [2] | Intracellular calcium response (Fluo-4) [3, 7] | Rotation rate [4] | Decay kinetics of calcium response ([3]; 8 μM, 400 nm light, 250 ms) | Time to peak of calcium transient after stimulation ([3]; 8 μM, 400 nm light, 250 ms) | Repeatability of calcium responses ([3]; 3.2×10^2 W cm^−2, 250 ms, multiple stimulations) | Light power dependence of calcium response ([3]; 250 ms pulse, 5 μm diameter) | Propagation of calcium response to adjacent cells ([3]; MM 1, 400 nm light) | Signal amplitude compared with other MM ([3]; MM 1 vs MM 2) | Myotube contraction [5] | Absorbance at 400 nm [6] | Intracellular calcium response (Fluo-4) ([3]; MM 3 at 24 μM, 6.4×10^2 W cm^−2)
CC1Cc2ccc3ccccc3c2C1=C1c2ccccc2Sc2cc(NCCN(C)C)ccc21 (stereo not drawn) [MM 1] | 3 × 10^6 Hz | ~11,000 L mol^−1cm^−1 | increased Fluo-4 fluorescence in the targeted cell; also recorded: elicited rapid increases in intracellular calcium; also recorded: elicited the strongest signaling responses in vitro | ~ 3 MHz and 3 MHz | decayed over the next minute | 10 to 20 s | repeatable | higher response amplitude at higher irradiance | Calcium responses were observed to propagate to adjacent cells | reached a higher amplitude than those elicited by MM 2 | strong contraction in C2C12 myotubes | nearly identical absorbances at 400 nm | 
